Laboratory results reported in patent publication US9555023B2, “Pharmaceutical salts and polymorphs of a factor Xa inhibitor” (Millennium Pharmaceuticals, Inc., priority 2005, dated 2017).
Read-outs that look alike come from different tables or passages of the source.

What was measured:
[1] = Stability: hydrolyzed amidine content by HPLC after 57° C. / 75% humidity; type: physicochemical; conditions: for Hydrolyzed Amidine Content (3 days) / Hydrolyzed Amidine Content (6 days) / Hydrolyzed Amidine Content (10 days): 57° C., 75% room humidity, percentage of the main peak
Method: To assess the thermal and hydrolytic stability of the salt, tests known to those of skill in the art are performed.
The sample solvent was methanol and a mobile phase modifier of 0.1% trifluoroacetic acid was employed. Data were collected after 3, 6 and 10 days except data for the propionate was collected at 0, 3, and 8 days. […] All other impurity peaks were disregarded in the calculation

[2] = Secondary screen: crystallinity (XRPD); type: physicochemical; conditions: for Crystallinity: secondary screen, Table 5
Method: X-Ray Powder Diffraction patterns were collected on a Siemens D5000 diffractometer using CuKα radiation (40 kV, 40 mA), […], automatic divergence and receiving slits, a graphite secondary monochromator and a scintillation counter.
Samples run under ambient conditions were prepared as flat plate specimens using powder. Approximately 35 mg of the sample was gently packed into a cavity cut into polished, zero-background (510) silicon wafer. The sample was rotated in its own plane during analysis. The details of the data collection are given for the method in Table 2 below: […]

[3] = Primary salt screen (purity, crystallinity and stability of precipitated salts); conditions: 20 mg free base in 10% (aq.) THF, 1.1 eq. acid in ethanol, tert-butyl methyl ether to induce precipitation
Method: To 20 mg of the free base in 3 mL of 10% (aq.) THF mixture was added 1.1 eq. of the acid in 1 mL ethanol. The mixture was shaken for 2 hours, followed by the addition of 2 mL of tert-butyl methyl ether in order to induce precipitation and shaken for another 2 hours. The samples were then filtered, dried and then analyzed to judge their purity, crystallinity and stability.

[4] = Solubility in water by HPLC; type: physicochemical
Method: This was measured by suspending enough salt in 0.25 mL of solvent (water) to give a maximum final concentration of ≧10 mg/mL of the parent free form of the salt. The suspension was equilibrated at 25° C. for 24 hr followed by a pH check and filtration through a glass fibre C 96 well plate. The filtrate was then diluted down 101×. Quantitation was by HPLC with reference to a standard dissolved in DMSO at approx 0.1 mg/mL. Different volumes of the standard, diluted and undiluted tests were injected. […] If there was sufficient solid in the filter plate the XRPD was normally checked for phase changes, hydrate formation, amorphization, crystallization, etc.

[5] = Log P determination by potentiometric titration (Sirius GlpKa); type: physicochemical; conditions: Octanol:ISA water
Description: This was by potentiometric titration on a Sirius GlpKa instrument using three ratios of Octanol:ISA water to generate Log P, Log Pion, and Log D values. The data was refined using Refinement Pro software version 1.0. Predictions of Log P were made using ACD Ver. 8.08 and Syracuse KNOWWIN Ver. 1.67 software.

[6] = Gravimetric vapour sorption (GVS) water sorption; type: physicochemical; conditions: GVS isotherm, XRPD post GVS
Method: All samples were run on a Hiden IGASorp moisture sorption analyzer running CFRSorp software. Sample sizes were typically 10 mg. A moisture adsorption desorption isotherm was performed as outlined below (2 scans giving 1 complete cycle). All samples were loaded/unloaded at typical room humidity and temperature (40% RH, 25° C.). All samples were analyzed by XRPD post GVS analysis. The standard isotherm was performed at 25° C. at 10% RH intervals over a 0-90% RH range.

factor Xa = factor Xa (Homo sapiens, UniProt P00742); conditions: cited from earlier work
factor Xa, sequence (P00742 235-488 limits assumed): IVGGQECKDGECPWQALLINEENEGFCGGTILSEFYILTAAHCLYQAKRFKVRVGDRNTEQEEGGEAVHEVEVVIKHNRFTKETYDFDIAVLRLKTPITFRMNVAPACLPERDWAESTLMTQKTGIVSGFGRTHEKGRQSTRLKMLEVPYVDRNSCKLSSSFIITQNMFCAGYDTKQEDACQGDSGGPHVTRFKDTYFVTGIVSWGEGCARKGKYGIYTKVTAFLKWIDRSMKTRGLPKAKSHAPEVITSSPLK
factor Xa, sequence (P00742 41-179 partner limits assumed): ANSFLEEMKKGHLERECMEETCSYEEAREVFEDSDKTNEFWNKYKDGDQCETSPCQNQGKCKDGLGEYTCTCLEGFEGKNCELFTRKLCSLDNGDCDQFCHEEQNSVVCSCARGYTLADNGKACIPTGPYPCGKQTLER

Compound: CC(=O)O [Acetate]
- thermal and hydrolytic stability (in words) [1]: did not possess good thermal and hydrolytic stability
- Hydrolyzed Amidine Content (3 days) [1]: 0.62-1.11%
- Hydrolyzed Amidine Content (6 days) [1]: 2.30-3.56%
- Hydrolyzed Amidine Content (10 days) [1]: 3.61-7.90%
- crystallinity (in words) [2]: good crystallinity
- Crystallinity [2]: crystalline

Compound: Cl [Hydrochloric]
- Salt (primary screen grade: purity, crystallinity and stability) [3]: +++
- Crystallinity [2]: amorphous

Compound: COc1ccc(NC(=O)c2ccc(C(=N)N(C)C)cc2)c(C(=O)Nc2ccc(Cl)cn2)c1 [Maleate]
- solubility at 24 h ([4]; thermodynamic from solid, water, 25° C., 24 hr, as parent free form): 2050 to 2270 µg/mL
- thermal and hydrolytic stability (in words) ([1]; listed as maleate salt): best stability observed
- thermal and hydrolytic stability (in words) ([1]; listed as maleate salt of Formula II): excellent
- Measured LogPion [5]: −0.08
- logD ([5]; read-out: Measured LogD): 0.09
- logP ([5]; read-out: Measured LogP): 3.09
- moisture stability [6]: excellent moisture stability

Compound: O=C(O)CC(=O)O [Malonic]
- Salt (primary screen grade: purity, crystallinity and stability) [3]: −

Compound: O=S(=O)(O)c1cccc2c(S(=O)(=O)O)cccc12 [Naphthalene-1,5-disulfonic]
- Salt (primary screen grade: purity, crystallinity and stability) [3]: +

Compound: O=C(O)CCC(=O)O [Succinic]
- Salt (primary screen grade: purity, crystallinity and stability) [3]: +++
- Crystallinity [2]: amorphous

Compound: COc1ccc(NC(=O)c2ccc(C(=N)N(C)C)cc2)c(C(=O)Nc2ccc(Cl)cn2)c1 [compound of Formula I]
- solubility (in words) [4]: did not exhibit optimum solubility
- factor Xa inhibition (in words) (factor Xa): potent factor Xa inhibitor

Compound: Adipic
- Salt (primary screen grade: purity, crystallinity and stability) [3]: ++

Compound: Propionic
- Hydrolyzed Amidine Content (3 days) [1]: 2.22%
- Hydrolyzed Amidine Content (6 days) [1]: 2.97%
- Hydrolyzed Amidine Content (10 days) [1]: 1.71%
- Salt (primary screen grade: purity, crystallinity and stability) [3]: +++
- Crystallinity [2]: crystalline
